In patent publication US7851479B2, “Use of pyrimidinedione derivative for preventing or treating hepatitis C” (priority 2006, dated 2010):
Read-outs that look alike come from different tables or passages of the source.

How the values were obtained:
[1] = drug toxicity control in uninfected MDBK cells (MTS staining); assay type: cell-based; conditions: bovine
Protocol: (§1) One day before the screening, MDBK cell line (Mardin-Darby bovine kidney, ATTC CCL22) which had been subcultured previously was trypsinized and spread on a plate, followed by counting the cell colonies formed. Then, equal amount of DMEM (Dulbecco's Modified Eagle's Medium) and Ham's F-12 were mixed, and 10% fetal bovine serum was added to the resulting mixture to prepare a tissue culture medium. The MDBK cells were inoculated to the medium at a concentration of 6×10^4 cells/ml, and then the resulting cell solution was added to a 96-well flat-bottomed plate in an amount of 100 μl per well.
(§2) Specified pyrimidinedione derivatives (SAMJIN Pharmaceuticals) were prepared as test compounds and a conventional drug for treating hepatitis C, Ribavirin (Sigma) was used as a comparative drug. Each of the test compounds was dissolved in DMSO to prepare a sample solution. Then, the resulting sample solution was diluted with a mixture prepared by mixing equal amount of DMEM and Ham's F-12 in accordance with the three one-log series dilution to prepare sample dilutes.
(§3) One day after adding MDBK cells to the 96-well plate, the culture solution on the plate was removed and each of the sample dilutes obtained step 2 was added thereto, adjusting the final concentration thereof to 1 to 100 μg/ml. The comparative drug, Ribavirin, was added to each of the control wells of the palte at a concentration of 1 to 100 μg/ml.
(§4) The well-plate comprising ‘cell control group well’ containing MDBK cell only; ‘virus control well’ containing MDBK cell and BVDV virus; ‘drug toxicity control well’ containing MDBK cell and sample compounds for assessing the cell toxicity of each sample; ‘drug calorimetric control well’ containing only one of the sample compounds; and ‘experimental group well’ containing MDBK cell, BVDV virus and one of the sample compounds.
(§5) The well-plate had been placed in a 5% CO2 incubator at 37° C. for 6 days, and then, analyzed with Cell Proliferation Assay kit (CellTiter96® AQUEOUS one solution, Promega). The analysis involves the step of counting live cells by a colorimetric method and the kit contains MTS, a new tetrazolium compound which forms a stable solution when the test compounds are added, and PES, an electron coupling agent. In a cell having vigorous metabolism, NADPH or NADH generated by mitochodrial dehydrogenase renders the soluble MTS to a form of […] formazan crystals. Therefore, the amount of formazan crystal is directly proportional to the number of live cells in a medium.
(§6) The CellTiter96® AQUEOUS one solution reagent of 10 μl was added to each well of the plate and cultivated in a incubator at 37° C. for 4 hours. Then, the plate was covered with an adhesive plate sealer, mixing formazan crystals. Absorbance of each well was measured by Molecular Devices Vmax plate reader (Molecular Devices) at 490 nm.
The toxicity of each sample compound was analyzed with a in-house computer program and the cytopathic effect (CPE), followed by calculating % cell activity, therapeutic Index (TI).
In table 2, EC50 means the dosage at which the desired response is present for 50% of the population, i.e., the concentration of the sample compounds at which the BVDV infection was inhibited for 50% of MDBK cells; TC50 means the dosage at which cell death is induced for 50% of the population, i.e., the cytotoxicity of the sample compounds for MDBK cells. TI (TC50/EC50) means a comparison of the amount of a therapeutic agent that causes the therapeutic effect to the amount that causes toxic effects. Quantitatively, it is the ratio given by the dose required to produce the toxic effect divided by the therapeutic dose.

[2] = test system: bovine viral diarrhea virus (BVDV); test: anti-BVDV drug screening assay (CPE inhibition, MTS staining); assay type: cell-based; conditions: for EC50: Bovine viral diarrhea virus isolates and strains, 144 h, read-out: MDBK/BVDV EC50; for TI (TC50/EC50): therapeutic index, MDBK TC50 / BVDV EC50
Protocol: To assess the effectiveness of the pyrimidinedione derivative used in the present invention as a drug for preventing or treating hepatitis C, an anti-BVDV drug screening assay was conducted with bovine viral diarrhea virus (BVDV). BVDV, a virus having a genome, reproduction cycle and infection type similar to hepatitis C virus, was employed because hepatitis C virus can not be subjected to […] cultivation.
as §1
Meanwhile, BVDV (ATCC VR534), which had been stored in a −80° C. freezer at a pre-determined concentration, was transferred to a biological safety cabinet and allowed to thaw at room temperature. The virus was diluted with the tissue culture medium in an sufficient amount for the virus in each well to induce 85 to 95% cell death 6 days after the virus infection.
as §2, §3, §4, §5, §6
The toxicity of each sample compound was analyzed with a in-house computer program and the cytopathic effect (CPE), followed by calculating % cell activity, therapeutic Index (TI). […]

[3] = concentration at which BVDV infection was inhibited for 50% of MDBK cells, 6 days, MTS

SMILES	CC50 at 6 days ([1]; uninfected MDBK cells (drug toxicity control wells), cytotoxicity for MDBK cells, 6 days, MTS, read-out: MDBK TC50) [µM]	EC50 [2, 3] [µM]	TI (TC50/EC50) [2]	CC50 at 6 days [1] [µM]	EC50 ([2]; MDBK) [µM]
NC(=O)c1ncn([C@@H]2O[C@H](CO)[C@@H](O)[C@H]2O)n1 [Ribavirin, reference compound]	7	1.66	4.2		
Cc1cc(C)cc(Sc2c(C(C)C)c(=O)[nH]c(=O)n2CC2CC2)c1 [Sample 1a, 1-cyclopropylmethyl-6-(3,5-dimethyl-phenylsulfanyl)-5-isopropyl-1H-pyrimidine-2,4-dione]		1.57	4.2	6.6	
CCc1c(Oc2cc(C)cc(C)c2)n(CC2CC2)c(=O)[nH]c1=O [Sample 1b, 1-cyclopropylmethyl-6-(3,5-dimethyl-phenoxy)-5-ethyl-1H-pyrimidine-2,4-dione]		14.1	>7.1	> 100	
Cc1cc(C)cc(Sc2c(C(C)C)c(=O)[nH]c(=O)n2CC2CCC2)c1 [Sample 1c, 1-cyclobutylmethyl-6-(3,5-dimethyl-phenylsulfanyl)-5-isopropyl-1H-pyrimidine-2,4-dione]		1.44	4.58	6.6	
Cc1cc(C)cc(Sc2c(C(C)C)c(=O)[nH]c(=O)n2CC2CCCC2)c1 [Sample 1d, 1-cyclopentylmethyl-6-(3,5-dimethyl-phenylsulfanyl)-5-isopropyl-1H-pyrimidine-2,4-dione]		13.7	>3.7	> 50	
Cc1cc(C)cc(Sc2c(C(C)C)c(=O)[nH]c(=O)n2CC2=CCCC2)c1 [Sample 1e, 1-cyclopent-1-enymethyl-6-(3,5-dimethyl-phenylsulfanyl)-5-isopropyl-1H-pyrimidine-2,4-dione]		10.2	>4.9	> 50	
CCc1c(Oc2cc(C)cc(C)c2)n(CC2=CCCC2)c(=O)[nH]c1=O [Sample 1f, 1-cyolopent-1-enymethyl-6-(3,5-dimethyl-phenoxy)-5-ethyl-1H-pyrimidine-2,4-dione]		1.51	>66.3	> 100	
Cc1cc(C)cc(Oc2c(C(C)C)c(=O)[nH]c(=O)n2CC2=CCCC2)c1 [Sample 1g, 1-cyclopent-1-enymethyl-6-(3,5-dimethyl-phenoxy)-5-isopropyl-1H-pyrimidine-2,4-dione]		20.1	>2.5	> 50	
CCc1c(C(=O)c2cc(C)cc(C)c2)n(CC2=CCCC2)c(=O)[nH]c1=O [Sample 1h, 1-cyclopent-1-enymethyl-6-(3,5-dimethyl-benzoyl)-5-ethyl-1H-pyrimidine-2,4-dione]		13.9	1.2	17.1	
Cc1cc(C)cc(C(=O)c2c(C(C)C)c(=O)[nH]c(=O)n2CC2=CCCC2)c1 [Sample 1i, 1-cyclopent-1-enymethyl-6-(3,5-dimethyl-benzoyl)-5-isopropyl-1H-pyrimidine-2,4-dione]		1.36	15.0	20.5	
CC(C)c1c(Sc2ccccc2)n(CC2CC=CC2)c(=O)[nH]c1=O [Sample 1j, 1-cyclopent-3-enymethyl-5-isopropyl-6-phenylsulfanyl-1H-pyrimidine-2,4-dione]		13.7	>3.7	> 50	
Cc1cc(C)cc(Sc2c(C(C)C)c(=O)[nH]c(=O)n2CC2CCCCC2)c1 [Sample 1k, 1-cyclohexylmethyl-6-(3,5-dimethyl-phenylsulfanyl)-5-isopropyl-1H-pyrimidine-2,4-dione]		1.29	5.11	6.6	
Cc1cc(C)cc(Sc2c(C(C)C)c(=O)[nH]c(=O)n2CCC2CCCC2)c1 [Sample 1l, 1-(2-cyclopentyl-ethyl)-6-(3,5-dimethyl-phenylsulfanyl)-5-isopropyl-1H-pyrimidine-2,4-dione]		14	>3.6	> 50	
Cc1cc(C)cc(Oc2c(C(C)C)c(=O)[nH]c(=O)n2CCC2C=CCC2)c1 (stereo not drawn) [Sample 1m, 1-(2-cyclopent-2-enyl-ethyl)-6-(3,5-dimethyl-phenoxy)-5-isopropyl-1H-pyrimidine-2,4-dione]			>3.7	> 50	13.4
Cc1cc(C)cc(C(=O)c2c(C(C)C)c(=O)[nH]c(=O)n2CCC2C=CCC2)c1 (stereo not drawn) [Sample 1o, 1-(2-cyclopent-2-enyl-ethyl)-6-(3,5-dimethyl-benzoyl)-5-isopropyl-1H-pyrimidine-2,4-dione]			3.73	6.94	1.86
CCc1c(C(=O)c2cc(C)cc(C)c2)n(CC2=CCC(CO)C2)c(=O)[nH]c1=O (stereo not drawn) [Sample 1p, 6-(3,5-dimethyl-benzoyl)-5-ethyl-1-(4-hydroxymethyl-cyclopent-1-enylmethyl)-1H-pyrimidine-2,4-dione]		15	5.11	66	
